Source: US11813270B2, “Nitric oxide-releasing antibacterial compounds, formulations, and methods pertaining thereto” (KNOW BIO, LLC, priority 2020, dated 2023)

What was measured:
Pseudomonas aeruginosa = experiment: MIC/MBC assay (CLSI method); type: cell-based; details: combined composition of β-cyclodextrin and MTDD
Mycobacterium abscessus = experiment: MIC/MBC assay (CLSI method); type: cell-based; details: unit not given

Row | SMILES | NO-loading (combined composition of β-cyclodextrin and MTDD) | MIC against P. aeruginosa (Pseudomonas aeruginosa) | NO Load (unit not given) | MBC (Mycobacterium abscessus; M. abscessus N0010, clinical) | MIC (Mycobacterium abscessus; M. abscessus N0010, clinical) | MBC (Mycobacterium abscessus; M. abscessus N0016, clinical) | MIC (Mycobacterium abscessus; M. abscessus N0016, clinical) | MBC (Mycobacterium abscessus; M. abscessus N0017, clinical) | MIC (Mycobacterium abscessus; M. abscessus N0017, clinical) | MBC (Mycobacterium abscessus; M. abscessus N0018, clinical) | MIC (Mycobacterium abscessus; M. abscessus N0018, clinical) | MBC (Mycobacterium abscessus; M. abscessus N0019, clinical) | MIC (Mycobacterium abscessus; M. abscessus N0019, clinical) | MBC (Mycobacterium abscessus; M. abscessus N0020, clinical) | MIC (Mycobacterium abscessus; M. abscessus N0020, clinical) | MBC (Mycobacterium abscessus; M. abscessus N0046) | MIC (Mycobacterium abscessus; M. abscessus N0046)
1 | OC[C@H]1O[C@@H]2O[C@H]3[C@H](O)[C@@H](O)[C@@H](O[C@H]4[C@H](O)[C@@H](O)[C@@H](O[C@H]5[C@H](O)[C@@H](O)[C@@H](O[C@H]6[C@H](O)[C@@H](O)[C@@H](O[C@H]7[C@H](O)[C@@H](O)[C@@H](O[C@H]8[C@H](O)[C@@H](O)[C@@H](O[C@H]1[C@H](O)[C@H]2O)O[C@@H]8CO)O[C@@H]7CO)O[C@@H]6CO)O[C@@H]5CO)O[C@@H]4CO)O[C@@H]3CO [0% MTDD, β-cyclodextrin] | 0.0 µmol/mg | >6250 µg/mL | – | – | – | – | – | – | – | – | – | – | – | – | – | – | –
2 | C[C@@H]1CCC[C@H](C)N1[N+]([O-])=N[O-].[Na+] [cis-DMP/NO] | – | – | 6.9 | 4 | 1 | 4 | 2 | 4 | 2 | 4 | 1 | 4 | 2 | 2 | 1 | 4 | 2
